Columns and labels:
Per1 clock gene [1] = assay: Per1 clock gene expression in HepG2 cells by qPCR; format: cell-based, human; conditions: HepG2, 50 μg/mL, eight hours after addition, DMSO control
Procedure: (§1) Cultured cells (human liver cancer-derived cell line HepG2) were seeded at 2.5×10^3 cells/cm^2 in a T-75 flask (BD Falcon™), and medium replacement (RPMI1640, 10% FBS) was performed every three days. The cells reaching 80% confluence were passaged at a concentration of 4.2×10^4 cells/mL in a 6-well plate (BD Falcon™), and in order to entrain the phases of the circadian rhythms of the cells, the medium was replaced with a low-serum medium (RPMI1640, 2% FBS) after three days. Three days after the replacement with a low-serum medium, the cells were subjected to testing. A solution of the test substance in DMSO (50 μg/μL) was prepared and added to the 6-well plate to give a final concentration of the test substance of 50 μg/mL. As a control, DMSO was added to the 6-well plate (to give a final concentration of 0.1%).
(§2) Eight hours after the addition of the test substance, the cells were harvested, and mRNA was extracted according to a conventional method. The extracted mRNA was used to analyze the expression levels of the Bmal1 and Per1 clock genes by qPCR (with Applied Biosystems 7900HT Fast Real-Time PCR System).

Bmal1 clock gene [2] = assay: Bmal1 clock gene expression in HepG2 cells by qPCR; format: cell-based, human; conditions: HepG2, 50 μg/mL, eight hours after addition, DMSO control
Procedure: as §1, §2

Bmal1 clock gene [3] = assay: Bmal1 clock gene expression in liver of SD rats by quantitative PCR; format: in vivo; conditions: 200 mg/5 mL/kg orally once daily for 5 days, sampled four hours after the last treatment
Procedure: (§3) Seven-week-old male SD rats were habituated for one week and then classified into a test food group (isolated oleuropein group) and a control group (each group consisting of 6 animals). Next, the isolated oleuropein was dissolved in distilled water (produced by Otsuka Pharmaceutical Co., Ltd.), and the solution was orally administered forcibly to the test food group at a dose of 200 mg/5 mL/kg once daily for 5 days. The control food group was orally fed forcibly with distilled water (produced by Otsuka Pharmaceutical Co., Ltd.) at a dose of 5 mL/kg once daily for 5 days. Four hours after the last treatment, liver sampling was done.
(§4) From the liver samples collected, total RNA was extracted according to a conventional method, and used to analyze the expression levels of the Bmal1 and Per1 clock genes by quantitative PCR (with Applied Biosystems 7900HT Fast Real-Time PCR System).

Per1 clock gene [4] = assay: Per1 clock gene expression in liver of SD rats by quantitative PCR; format: in vivo; conditions: 200 mg/5 mL/kg orally once daily for 5 days, sampled four hours after the last treatment
Procedure: as §3, §4

COC(=O)C1=CO[C@@H](C)[C@@H](C=O)C1CC(=O)OCCc1ccc(O)c(O)c1 (mixture of isomers) [3,4-DHPEA-EA, 3,4-Dihydroxyphenylethanol-elenolic acid]
Per1 expression (Per1 clock gene [1]): increasing | Bmal1 expression (Bmal1 clock gene [2]): reduced

C/C=C1/[C@H](O[C@@H]2O[C@H](CO)[C@@H](O)[C@H](O)[C@H]2O)OC=C(C(=O)OC)[C@H]1CC(=O)OCCc1ccc(O)c(O)c1 [isolated oleuropein, Oleuropein]
Bmal1 expression as compared to the control group (Bmal1 clock gene [3]): significant decrease | Per1 expression as compared to the control group (Per1 clock gene [4]): significant increase

From patent publication US20160206642A1, “CLOCK GENE EXPRESSION LEVEL REGULATOR” (SUNTORY HOLDINGS LIMITED, priority 2013, published 2016)
